# In patent US8541381B2, “Process for producing enriched fractions containing up to 100% of bacopasaponins from the plant materials of bacopa species” (Laila Impex, priority 2005, dated 2013):
row,melting point [°C],Compound
1,246 to 258,CC(C)=CC1C[C@@](C)(O[C@@H]2OC[C@H](O)C(O)C2O)C2C3CCC4[C@@]5(C)CC[C@H](O[C@@H]6OC(CO)[C@@H](O)C(O[C@@H]7OC(CO)[C@@H](O)C(O)C7O)C6O[C@@H]6O[C@@H](CO)C(O)C6O)C(C)(C)C5CC[C@@]4(C)[C@@]34CO[C@@]2(C4)O1 (stereo partly drawn)
2,248 to 256,CC(C)=CC1C[C@@](C)(O[C@@H]2OC[C@H](O)C(O)C2O)C2C3CCC4[C@@]5(C)CC[C@H](O[C@@H]6OC[C@H](O)C(O[C@@H]7OC(CO)[C@@H](O)C(O)C7O)C6O[C@@H]6O[C@@H](CO)C(O)C6O)C(C)(C)C5CC[C@@]4(C)[C@@]34CO[C@@]2(C4)O1 (stereo partly drawn)
3,278 to 282,CC(C)=C[C@H]1CO[C@]23C[C@]4(CO2)C(CCC2[C@@]5(C)CC[C@H](O[C@@H]6OC(CO)[C@@H](O)C(O[C@@H]7OC(CO)[C@@H](O)C(O)C7O)C6O)C(C)(C)C5CC[C@]24C)C3[C@]1(C)O (stereo partly drawn)
